Source: paper PMC5728361 (Structure (London, England : 1993), 2017)

Biological target: PLC-δ1 PH domain (Homo sapiens, UniProt P51178)
Format: binding
Conditions: pH 7.5

Chain of PLC-δ1 PH domain (P51178 21-130): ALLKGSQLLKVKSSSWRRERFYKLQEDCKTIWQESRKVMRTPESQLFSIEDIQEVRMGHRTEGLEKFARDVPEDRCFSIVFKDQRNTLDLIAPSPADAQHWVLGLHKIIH

Question: How did the “PIP-binding specificity of PLC-δ1 PH domain” value turn out when “L-α-phosphatidylinositol-4,5-bisphosphate [PI(4,5)P2]” was run?
Answer: The value was “binding specificity”.
